Assay results: ChEMBL document CHEMBL3813683, “Design, synthesis and anti-cancer activity evaluation of podophyllotoxin-norcantharidin hybrid drugs” (Bioorg Med Chem Lett, 2016)

Assays:
A549 = test: Cytotoxicity against human A549 cells after 36 hrs by MTT assay; type: functional, cell-based; settings: A549, 36 h
MCF7 [1] = test: Cytotoxicity against human MCF7 cells after 36 hrs by MTT assay; type: functional, cell-based; settings: MCF7, 36 h
[2] = Cytotoxicity against HEK293T cells after 36 hrs by MTT assay; type: cell-based; settings: Homo sapiens, HEK-293T
HeLa = test: Cytotoxicity against human HeLa cells after 36 hrs by MTT assay; type: functional, cell-based
MCF7 [3] = test: Induction of apoptosis in human MCF7 cells assessed as necrotic cells at 1 uM after 24 hrs by Annexin V-FITC/propidium iodide staining-based flow cytometry (reference value: 0.021 to 3.8%); type: functional
MCF7 [4] = test: Induction of apoptosis in human MCF7 cells assessed as early apoptotic cells at 8 uM after 24 hrs by Annexin V-FITC/propidium iodide staining-based flow cytometry (reference value: 2.45 to 6.92%); type: functional
MCF7 [5] = test: Induction of apoptosis in human MCF7 cells assessed as viable cells at 4 uM after 24 hrs by Annexin V-FITC/propidium iodide staining-based flow cytometry (reference value: 80 to 91.6%); type: functional; settings: MCF7, 24 h, read-out: Activity
MCF7 [6] = test: Cell cycle arrest in human MCF7 cells assessed as accumulation at G0/G1 phase at 8 uM after 24 hrs by propidium iodide staining-based flow cytometry (reference value: 64.68 to 80.32%); type: functional
MCF7 [7] = test: Cell cycle arrest in human MCF7 cells assessed as accumulation at S phase at 8 uM after 24 hrs by propidium iodide staining-based flow cytometry (reference value: 15.95 to 25.74%); type: functional
MCF7 [8] = test: Induction of apoptosis in human MCF7 cells assessed as viable cells at 2 uM after 24 hrs by Annexin V-FITC/propidium iodide staining-based flow cytometry (reference value: 80 to 91.6%); type: functional; settings: MCF7, 24 h, read-out: Activity
MCF7 [9] = test: Cell cycle arrest in human MCF7 cells assessed as accumulation at S phase at 2 uM after 24 hrs by propidium iodide staining-based flow cytometry (reference value: 15.95 to 25.74%); type: functional
MCF7 [10] = test: Cell cycle arrest in human MCF7 cells assessed as accumulation at G2/M phase at 8 uM after 24 hrs by propidium iodide staining-based flow cytometry (reference value: 3.73 to 10.75%); type: functional
MCF7 [11] = test: Induction of apoptosis in human MCF7 cells assessed as early apoptotic cells at 2 uM after 24 hrs by Annexin V-FITC/propidium iodide staining-based flow cytometry (reference value: 2.45 to 6.92%); type: functional
MCF7 [12] = test: Cell cycle arrest in human MCF7 cells assessed as accumulation at G2/M phase at 2 uM after 24 hrs by propidium iodide staining-based flow cytometry (reference value: 3.73 to 10.75%); type: functional
MCF7 [13] = test: Induction of apoptosis in human MCF7 cells assessed as necrotic cells at 2 uM after 24 hrs by Annexin V-FITC/propidium iodide staining-based flow cytometry (reference value: 0.021 to 3.8%); type: functional
MCF7 [14] = test: Induction of apoptosis in human MCF7 cells assessed as late apoptotic cells at 2 uM after 24 hrs by Annexin V-FITC/propidium iodide staining-based flow cytometry (reference value: 5.92 to 9.33%); type: functional
MCF7 [15] = test: Induction of apoptosis in human MCF7 cells assessed as necrotic cells at 8 uM after 24 hrs by Annexin V-FITC/propidium iodide staining-based flow cytometry (reference value: 0.021 to 3.8%); type: functional
MCF7 [16] = test: Cell cycle arrest in human MCF7 cells assessed as accumulation at S phase at 4 uM after 24 hrs by propidium iodide staining-based flow cytometry (reference value: 15.95 to 25.74%); type: functional
MCF7 [17] = test: Induction of apoptosis in human MCF7 cells assessed as early apoptotic cells at 4 uM after 24 hrs by Annexin V-FITC/propidium iodide staining-based flow cytometry (reference value: 2.45 to 6.92%); type: functional
MCF7 [18] = test: Cell cycle arrest in human MCF7 cells assessed as accumulation at G2/M phase at 4 uM after 24 hrs by propidium iodide staining-based flow cytometry (reference value: 3.73 to 10.75%); type: functional
MCF7 [19] = test: Induction of apoptosis in human MCF7 cells assessed as early apoptotic cells at 1 uM after 24 hrs by Annexin V-FITC/propidium iodide staining-based flow cytometry (reference value: 2.45 to 6.92%); type: functional
MCF7 [20] = test: Induction of apoptosis in human MCF7 cells assessed as viable cells at 8 uM after 24 hrs by Annexin V-FITC/propidium iodide staining-based flow cytometry (reference value: 80 to 91.6%); type: functional; settings: MCF7, 24 h, read-out: Activity
MCF7 [21] = test: Induction of apoptosis in human MCF7 cells assessed as late apoptotic cells at 4 uM after 24 hrs by Annexin V-FITC/propidium iodide staining-based flow cytometry (reference value: 5.92 to 9.33%); type: functional
MCF7 [22] = test: Induction of apoptosis in human MCF7 cells assessed as late apoptotic cells at 1 uM after 24 hrs by Annexin V-FITC/propidium iodide staining-based flow cytometry (reference value: 5.92 to 9.33%); type: functional
MCF7 [23] = test: Cell cycle arrest in human MCF7 cells assessed as accumulation at G0/G1 phase at 2 uM after 24 hrs by propidium iodide staining-based flow cytometry (reference value: 64.68 to 80.32%); type: functional
MCF7 [24] = test: Induction of apoptosis in human MCF7 cells assessed as necrotic cells at 4 uM after 24 hrs by Annexin V-FITC/propidium iodide staining-based flow cytometry (reference value: 0.021 to 3.8%); type: functional
MCF7 [25] = test: Induction of apoptosis in human MCF7 cells assessed as viable cells at 1 uM after 24 hrs by Annexin V-FITC/propidium iodide staining-based flow cytometry (reference value: 80 to 91.6%); type: functional; settings: MCF7, 24 h, read-out: Activity
MCF7 [26] = test: Cell cycle arrest in human MCF7 cells assessed as accumulation at G0/G1 phase at 4 uM after 24 hrs by propidium iodide staining-based flow cytometry (reference value: 64.68 to 80.32%); type: functional
MCF7 [27] = test: Induction of apoptosis in human MCF7 cells assessed as late apoptotic cells at 8 uM after 24 hrs by Annexin V-FITC/propidium iodide staining-based flow cytometry (reference value: 5.92 to 9.33%); type: functional

`COc1cc(C2c3cc4c(cc3[C@H](OC(=O)[C@@H](Cc3ccccc3)N3C(=O)c5ccccc5C3=O)[C@H]3COC(=O)[C@H]23)OCO4)cc(OC)c1OC` (stereo not given in full) showed an IC50 (A549) of 7.28 µM, an IC50 (MCF7 [1]) of 25.5 µM and an IC50 [2] of 50.9 µM. It also gave an IC50 (HeLa) of 18.7 µM.
`COc1cc([C@@H]2c3cc4c(cc3[C@H](O)[C@H]3COC(=O)[C@H]23)OCO4)cc(OC)c1OC` [PODOFILOX] showed an Activity (MCF7 [3]) of 0.037%, an Activity (MCF7 [4]) of 3.24% and a viability at 4 µM (MCF7 [5]) of 93.1%. For the same compound, the Activity (MCF7 [6]) was 27.1%, the Activity (MCF7 [7]) was 57.7% and the viability at 2 µM (MCF7 [8]) was 90.8%. The Activity (MCF7 [9]) was 53.55%, the Activity (MCF7 [10]) was 15.2% and the Activity (MCF7 [11]) was 2.95%. For the same compound, the Activity (MCF7 [12]) was 11.97%, the Activity (MCF7 [13]) was 0.021% and the Activity (MCF7 [14]) was 6.26%. For the same compound, the Activity (MCF7 [15]) was 0.042%, the Activity (MCF7 [16]) was 19.36% and the Activity (MCF7 [17]) was 3.35%. It also gave an Activity (MCF7 [18]) of 12.77%, an Activity (MCF7 [19]) of 2.33% and a viability at 8 µM (MCF7 [20]) of 91.8%. It also gave an IC50 (A549) of 1.36 µM, an Activity (MCF7 [21]) of 3.57% and an IC50 (MCF7 [1]) of 1.11 µM. It also gave an Activity (MCF7 [22]) of 4.34%, an Activity (MCF7 [23]) of 34.48% and an Activity (MCF7 [24]) of 0.032%. The viability at 1 µM (MCF7 [25]) was 93.3%, the IC50 [2] was 1.54 µM and the Activity (MCF7 [26]) was 67.87%. For the same compound, the IC50 (HeLa) was 1.45 µM and the Activity (MCF7 [27]) was 4.97%.
For `COc1cc(C2c3cc4c(cc3[C@H](OC(=O)[C@H](Cc3ccccc3)N3C(=O)C5CCCCC5C3=O)[C@H]3COC(=O)[C@H]23)OCO4)cc(OC)c1OC` (stereo not given in full), the IC50 (A549) was 4.92 µM, the IC50 (MCF7 [1]) was 8.24 µM and the IC50 [2] was 42.6 µM. It also gave an IC50 (HeLa) of 8.28 µM.
Compound `COc1cc(C2c3cc4c(cc3[C@H](OC(=O)[C@H](C)N3C(=O)c5ccccc5C3=O)[C@H]3COC(=O)[C@H]23)OCO4)cc(OC)c1OC` (stereo not given in full) has an IC50 (A549) of 5.89 µM, an IC50 (MCF7 [1]) of 18.3 µM and an IC50 [2] of 88.6 µM. For the same compound, the IC50 (HeLa) was 19 µM.
`O=C1OC(=O)C2C3CCC(O3)C12` (stereo not given) showed an Activity (MCF7 [3]) of 5.89%, an Activity (MCF7 [4]) of 11% and a viability at 4 µM (MCF7 [5]) of 58.1%. It also gave an Activity (MCF7 [6]) of 31.77%, an Activity (MCF7 [7]) of 45.68% and a viability at 2 µM (MCF7 [8]) of 69%. The Activity (MCF7 [9]) was 42.95%, the Activity (MCF7 [10]) was 22.55% and the Activity (MCF7 [11]) was 6.04%. It also gave an Activity (MCF7 [12]) of 15.64%, an Activity (MCF7 [13]) of 4.21% and an Activity (MCF7 [14]) of 20.8%. For the same compound, the Activity (MCF7 [15]) was 14.2%, the Activity (MCF7 [16]) was 47.21% and the Activity (MCF7 [17]) was 8.3%. The Activity (MCF7 [18]) was 16.7%, the Activity (MCF7 [19]) was 5.68% and the viability at 8 µM (MCF7 [20]) was 33.5%. The IC50 (A549) was 15.7 µM, the Activity (MCF7 [21]) was 22% and the IC50 (MCF7 [1]) was 12.1 µM. For the same compound, the Activity (MCF7 [22]) was 14.5%, the Activity (MCF7 [23]) was 41.61% and the Activity (MCF7 [24]) was 11.6%. It also gave a viability at 1 µM (MCF7 [25]) of 74%, an IC50 [2] of 9.81 µM and an Activity (MCF7 [26]) of 36.09%. The IC50 (HeLa) was 9.03 µM and the Activity (MCF7 [27]) was 41.3%.
Work on `COc1cc(C2c3cc4c(cc3[C@H](OC(=O)C(Cc3ccccc3)N3C(=O)C5CCCCC5C3=O)[C@H]3COC(=O)[C@H]23)OCO4)cc(OC)c1OC` (stereo not given in full) yielded an IC50 (A549) of 1.72 µM, an IC50 (MCF7 [1]) of 1.17 µM and an IC50 [2] of 61.5 µM. The IC50 (HeLa) was 2.22 µM.
`COc1cc(C2c3cc4c(cc3[C@H](OC(=O)[C@H](C)N3C(=O)C5CCCCC5C3=O)[C@H]3COC(=O)[C@H]23)OCO4)cc(OC)c1OC` (stereo not given in full) showed an IC50 (A549) of 2.44 µM, an IC50 (MCF7 [1]) of 4.59 µM and an IC50 [2] of 74.2 µM. It also gave an IC50 (HeLa) of 5.81 µM.
With `COc1cc(C2c3cc4c(cc3[C@H](OC(=O)[C@@H](Cc3ccccc3)N3C(=O)C5C6CCC(O6)C5C3=O)[C@H]3COC(=O)[C@H]23)OCO4)cc(OC)c1OC` (stereo not given in full) the IC50 (A549) was 4.32 µM, the IC50 (MCF7 [1]) was 2.75 µM and the IC50 [2] was 67.7 µM. It also gave an IC50 (HeLa) of 3.09 µM.
Compound `COc1cc(C2c3cc4c(cc3[C@H](OC(=O)[C@@H](Cc3ccccc3)N3C(=O)C5CCCCC5C3=O)[C@H]3COC(=O)[C@H]23)OCO4)cc(OC)c1OC` (stereo not given in full) has an IC50 (A549) of 3.89 µM, an IC50 (MCF7 [1]) of 3.73 µM and an IC50 [2] of 63.4 µM. The IC50 (HeLa) was 3.89 µM.
For `COc1cc(C2c3cc4c(cc3[C@H](OC(=O)C(C)N3C(=O)C5CCCCC5C3=O)[C@H]3COC(=O)[C@H]23)OCO4)cc(OC)c1OC` (stereo not given in full), the IC50 (A549) was 2.34 µM, the IC50 (MCF7 [1]) was 1.87 µM and the IC50 [2] was 90.7 µM. For the same compound, the IC50 (HeLa) was 2.01 µM.
